The EC50 is the concentration at which the effect is half-maximal.

We go through 26 compounds from patent US12318403B2, “2′3′-cyclic dinucleotides and prodrugs thereof” (INSTITUTE OF ORGANIC CHEMISTRY AND BIOCHEMISTRY ASCR, V.V.I., priority 2019, dated 2025).

Test [1] deals with human wild type STING (WT STING) (Homo sapiens, UniProt Q86WV6, H232R). Briefly: 293T WT STING standard reporter assay. The conditions noted are these: standard reporter assay without digitonin, 7 hours, ISRE firefly luciferase. It counts as cell-based. On the technique in general: A reporter such as luciferase makes a cellular process visible.
Test [2] relates to peripheral blood mononuclear cell (PBMC). Kind of test: Peripheral blood mononuclear cell assay. The conditions noted are these: compounds 1h, washed, 15 hour incubation, average of one to four donors.
Protocol: Selected compounds were tested in an in vitro peripheral blood mononuclear cell (PBMC) assay. […] Serially diluted tested compounds were added to wells in 50 μl of cultivation medium and cells were incubated with the compounds for 1h at 37° C. with 5% CO2. Plates with cells were then spun 500 g for 5 minutes and the medium was removed. Cells were washed twice with the cell culture medium by the use of centrifugation and gently resuspended in 100 μl medium without compounds. After 15 hour incubation at 37° C. with 5% CO2, the cell culture medium was collected and the levels of interferon-alpha (INF-α), interferon-gamma (INF-γ) and tumor necrosis factor-alpha (TNF-α) were determined with ProcartaPlex Assays (ThermoFisher, Waltham, USA) and MAGPIX System (Merck KGaA, Darmstadt, Germany). […] Values reported are an average of runs from one to four donors.
The mark [3] stands for this setting: 293T WT STING EC50, 293T wtSTING-FL cells.
Setting [4] is: read-out: PBMC EC50 IFN-α, interferon-alpha level in medium.
Where [5] appears, read: read-out: PBMC EC50 IFN-γ, interferon-gamma level in medium.
The mark [6] stands for this setting: read-out: PBMC EC50 TNF-α, tumor necrosis factor-alpha level in medium.

Like-named read-outs stand apart in the source and are kept apart here.

human wild type STING (WT STING), sequence (Q86WV6 whole entry H232R): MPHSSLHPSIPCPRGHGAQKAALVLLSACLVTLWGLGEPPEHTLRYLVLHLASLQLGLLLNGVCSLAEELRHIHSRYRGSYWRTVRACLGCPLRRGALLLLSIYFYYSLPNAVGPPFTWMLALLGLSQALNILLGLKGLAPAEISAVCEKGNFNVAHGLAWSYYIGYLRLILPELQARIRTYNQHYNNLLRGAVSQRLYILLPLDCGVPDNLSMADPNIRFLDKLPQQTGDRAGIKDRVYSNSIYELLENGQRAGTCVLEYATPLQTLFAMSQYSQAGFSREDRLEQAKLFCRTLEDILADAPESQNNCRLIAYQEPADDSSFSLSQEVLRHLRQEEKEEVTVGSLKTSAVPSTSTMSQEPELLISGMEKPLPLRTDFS

Turning to `CCCCCCCCCCCC(=O)OCSP1(=O)CO[C@H]2[C@@H](F)[C@H](n3cnc4c(N)ncnc43)O[C@@H]2COP(=O)(O)O[C@@H]2[C@H](F)[C@@H](CO1)O[C@H]2n1cnc2c(=O)[nH]c(N)nc21` (single isomer, unassigned) [Compound 76a], in test [1] (setting [3]), a half-maximal response (EC50) required 300 nM. The same measure, in the same setting: as for `CC(C)(C)C(=O)OCSP1(=O)CO[C@H]2[C@@H](F)[C@H](n3cnc4c(N)ncnc43)O[C@@H]2COP(=O)(SCOC(=O)C(C)(C)C)O[C@@H]2[C@H](F)[C@@H](CO1)O[C@H]2n1cnc2c(=O)[nH]c(N)nc21` (single isomer, unassigned) [Compound 55d], the figure is 300 nM. `CC(C)(C)C(=O)OCSP1(=O)CO[C@H]2[C@@H](F)[C@H](n3cnc4c(N)ncnc43)O[C@@H]2COP(=O)(O)O[C@@H]2[C@H](F)[C@@H](CO1)O[C@H]2n1cnc2c(=O)[nH]c(N)nc21` (single isomer, unassigned) [Compound 41b]: in test [1] (setting [3]), it took 87800 nM to reach a half-maximal effect (EC50). On to `CC(C)(C)C(=O)OCOP1(=O)CO[C@H]2[C@@H](F)[C@H](n3cnc4c(N)ncnc43)O[C@@H]2COP(=O)(OCOC(=O)C(C)(C)C)O[C@@H]2[C@H](F)[C@@H](CO1)O[C@H]2n1cnc2c(N)ncnc21` (single isomer, unassigned) [Compound 81c], for which, in test [1] (293T wtSTING-FL cells, read-out: 293T WT STING EC50), the EC50 turned out to be 140 nM.

On to `CCCCCCCCCCCC(=O)OCSP1(=O)CO[C@H]2[C@@H](F)[C@H](n3cnc4c(N)ncnc43)O[C@@H]2COP(=O)(O)O[C@@H]2[C@H](F)[C@@H](CO1)O[C@H]2n1cnc2c(=O)[nH]c(N)nc21` (single isomer, unassigned) [Compound 76b], for which the EC50 in test [1] (setting [3]) is 30 nM. Regarding `CCCCCCCCCC(=O)Oc1ccc(CSP2(=O)CO[C@H]3[C@@H](F)[C@H](n4cnc5c(N)ncnc54)O[C@@H]3COP(=O)(O)O[C@@H]3[C@H](F)[C@@H](CO2)O[C@H]3n2cnc3c(=O)[nH]c(N)nc32)cc1` (single isomer, unassigned) [Compound 46b], the EC50 in test [1] (read-out: 293T WT STING EC50, 293T wtSTING-FL cells) came out at 60 nM. For `CC(C)(C)C(=O)Oc1ccc(CSP2(=O)CO[C@H]3[C@@H](F)[C@H](n4cnc5c(N)ncnc54)O[C@@H]3COP(=O)(O)O[C@@H]3[C@H](F)[C@@H](CO2)O[C@H]3n2cnc3c(=O)[nH]c(N)nc32)cc1` (single isomer, unassigned) [Compound 43b], in test [1] (setting [3]), the response was half-maximal at 3100 nM (EC50).

`CC(C)(C)C(=O)OCSP1(=O)CO[C@H]2[C@@H](F)[C@H](n3cnc4c(N)ncnc43)O[C@@H]2COP(=O)(O)O[C@@H]2[C@H](F)[C@@H](CO1)O[C@H]2n1cnc2c(=O)[nH]c(N)nc21` (single isomer, unassigned) [Compound 41a] gave an EC50 in test [1] (setting [3]) of 10400 nM. `CCCCCCCC(=O)OCSP1(=O)CO[C@H]2[C@@H](F)[C@H](n3cnc4c(N)ncnc43)O[C@@H]2COP(=O)(SCOC(=O)CCCCCCC)O[C@@H]2[C@H](F)[C@@H](CO1)O[C@H]2n1cnc2c(=O)[nH]c(N)nc21` (stereo partly drawn) [Compound 69b, {[(1S,6R,8R,9R,10R,16R,18R,19R)-18-(2-amino-6-oxo-6,9-dihydro-1H-purin-9-yl)-8-(6-amino-9H-purin-9-yl)-9,19-difluoro-13-{[(octanoyloxy)methyl]sulfanyl}-3,13-dioxo-2,4,7,11,14,17-hexaoxa-3λ^5,13λ^5-diphosphatricyclo[14.2.1.0^6,10]nonadecan-3-yl]sulfanyl}methyl octanoate] yielded an EC50 in test [1] (setting [3]) of 200 nM.

`CSP1(=O)CO[C@H]2[C@@H](F)[C@H](n3cnc4c(N)ncnc43)O[C@@H]2COP(=O)(SC)O[C@@H]2[C@H](F)[C@@H](CO1)O[C@H]2n1cnc2c(=O)[nH]c(N)nc21` (stereo partly drawn) [Compound 52c, (1S,6R,8R,9R,10R,16R,18R,19R)-18-(2-amino-6-oxo-6,9-dihydro-1H-purin-9-yl)-8-(6-amino-9H-purin-9-yl)-9,19-difluoro-3,13-bis(methylsulfanyl)-2,4,7,11,14,17-hexaoxa-3λ^5,13λ^5-diphosphatricyclo[14.2.1.0^6,10]nonadecane-3,13-dione] yielded an EC50 in test [1] (setting [3]) above 20000 nM. The compound `CCCCCC(=O)Oc1ccc(CSP2(=O)CO[C@H]3[C@@H](F)[C@H](n4cnc5c(N)ncnc54)O[C@@H]3COP(=O)(O)O[C@@H]3[C@H](F)[C@@H](CO2)O[C@H]3n2cnc3c(=O)[nH]c(N)nc32)cc1` (single isomer, unassigned) [Compound 42b] came in with an EC50 in test [1] (setting [3]) of 200 nM.

Turning to `CCCCCCCC(=O)Oc1ccc(CSP2(=O)CO[C@H]3[C@@H](F)[C@H](n4cnc5c(N)ncnc54)O[C@@H]3COP(=O)(O)O[C@@H]3[C@H](F)[C@@H](CO2)O[C@H]3n2cnc3c(=O)[nH]c(N)nc32)cc1` (single isomer, unassigned) [Compound 45b], in test [1] (setting [3]), the EC50 stood at 150 nM. As for `CCCCCC(=O)Oc1ccc(C(=O)Oc2ccc(CSP3(=O)CO[C@H]4[C@@H](F)[C@H](n5cnc6c(N)ncnc65)O[C@@H]4COP(=O)(O)O[C@@H]4[C@H](F)[C@@H](CO3)O[C@H]4n3cnc4c(=O)[nH]c(N)nc43)cc2)cc1` (single isomer, unassigned) [Compound 49a], the concentration giving a half-maximal response (EC50) in test [1] (setting [3]) was found to be 1800 nM. Consider `CCCC(=O)Oc1ccc(CSP2(=O)CO[C@H]3[C@@H](F)[C@H](n4cnc5c(N)ncnc54)O[C@@H]3COP(=O)(O)O[C@@H]3[C@H](F)[C@@H](CO2)O[C@H]3n2cnc3c(=O)[nH]c(N)nc32)cc1` (single isomer, unassigned) [Compound 48a], for which, in test [1] (setting [3]), a half-maximal response (EC50) required 5600 nM. The compound `CCCCCCCCCC(=O)Oc1ccc(CSP2(=O)CO[C@H]3[C@@H](F)[C@H](n4cnc5c(N)ncnc54)O[C@@H]3COP(=O)(O)O[C@@H]3[C@H](F)[C@@H](CO2)O[C@H]3n2cnc3c(=O)[nH]c(N)nc32)cc1` (single isomer, unassigned) [Compound 46a] registered an EC50 in test [1] (setting [3]) of 60 nM. Still for that read-out and setting: for `CC(C)(C)C(=O)OCOc1ccc(CSP2(=O)CO[C@H]3[C@@H](F)[C@H](n4cnc5c(N)ncnc54)O[C@@H]3COP(=O)(O)O[C@@H]3[C@H](F)[C@@H](CO2)O[C@H]3n2cnc3c(=O)[nH]c(N)nc32)cc1` (single isomer, unassigned) [Compound 44b] the value was 500 nM; for `CCCCCC(=O)Oc1ccc(CSP2(=O)CO[C@H]3[C@@H](F)[C@H](n4cnc5c(N)ncnc54)O[C@@H]3COP(=O)(O)O[C@@H]3[C@H](F)[C@@H](CO2)O[C@H]3n2cnc3c(=O)[nH]c(N)nc32)cc1` (single isomer, unassigned) [Compound 42a], 300 nM; for `CCCCCCCC(=O)Oc1ccc(CSP2(=O)CO[C@H]3[C@@H](F)[C@H](n4cnc5c(N)ncnc54)O[C@@H]3COP(=O)(O)O[C@@H]3[C@H](F)[C@@H](CO2)O[C@H]3n2cnc3c(=O)[nH]c(N)nc32)cc1` (single isomer, unassigned) [Compound 45a], 300 nM. Consider `CCCCCCCCCCCC(=O)Oc1ccc(CSP2(=O)OC[C@H]3O[C@@H](n4cnc5c(N)ncnc54)[C@H](F)[C@@H]3OCP(=O)(O)OC[C@H]3O[C@@H](n4cnc5c(=O)[nH]c(N)nc54)[C@H](O2)[C@@H]3F)cc1` (single isomer, unassigned) [Compound 38a], for which the results for the EC50 in test [2] (setting [4]), in test [2] (setting [5]) and in test [2] (setting [6]) were 1400 nM, 2600 nM and 1400 nM, respectively. In the case of `CC(C)(C)C(=O)OCOc1ccc(CSP2(=O)CO[C@H]3[C@@H](F)[C@H](n4cnc5c(N)ncnc54)O[C@@H]3COP(=O)(O)O[C@@H]3[C@H](F)[C@@H](CO2)O[C@H]3n2cnc3c(=O)[nH]c(N)nc32)cc1` (single isomer, unassigned) [Compound 44a], a half-maximal effect in test [1] (setting [3]) (EC50) was put at 1900 nM. With `CC(C)(C)C(=O)Oc1ccc(CSP2(=O)CO[C@H]3[C@@H](F)[C@H](n4cnc5c(N)ncnc54)O[C@@H]3COP(=O)(O)O[C@@H]3[C@H](F)[C@@H](CO2)O[C@H]3n2cnc3c(=O)[nH]c(N)nc32)cc1` (single isomer, unassigned) [Compound 43a], in test [1] (setting [3]), the EC50 stood at 1200 nM. `CCCC(=O)Oc1ccc(CSP2(=O)CO[C@H]3[C@@H](F)[C@H](n4cnc5c(N)ncnc54)O[C@@H]3COP(=O)(O)O[C@@H]3[C@H](F)[C@@H](CO2)O[C@H]3n2cnc3c(=O)[nH]c(N)nc32)cc1` (single isomer, unassigned) [Compound 48b] returned an EC50 in test [1] (setting [3]) of 3400 nM. `CCCCCC(=O)Oc1ccc(C(=O)Oc2ccc(CSP3(=O)CO[C@H]4[C@@H](F)[C@H](n5cnc6c(N)ncnc65)O[C@@H]4COP(=O)(O)O[C@@H]4[C@H](F)[C@@H](CO3)O[C@H]4n3cnc4c(=O)[nH]c(N)nc43)cc2)cc1` (single isomer, unassigned) [Compound 49b]: it took 4500 nM to reach a half-maximal effect in test [1] (setting [3]) (EC50).

Take `CCCCCCCCCCCC(=O)Oc1ccc(CSP2(=O)CO[C@H]3[C@@H](F)[C@H](n4cnc5c(N)ncnc54)O[C@@H]3COP(=O)(O)O[C@@H]3[C@H](F)[C@@H](CO2)O[C@H]3n2cnc3c(=O)[nH]c(N)nc32)cc1` (single isomer, unassigned) [Compound 47a]: in test [1] (setting [3]), the EC50 was determined as 50 nM. Take `CCCCCCCCCCCCCC(=O)OCSP1(=O)OC[C@H]2O[C@@H](n3cnc4c(N)ncnc43)[C@H](F)[C@@H]2OCP(=O)(O)OC[C@H]2O[C@@H](n3cnc4c(=O)[nH]cnc43)[C@H](O1)[C@@H]2F` (single isomer, unassigned) [Compound 68a]: the EC50 in test [2] (setting [4]) stood at 900 nM; in test [2] (setting [5]), 1000 nM; in test [2] (setting [6]), 600 nM. In the same order, the values of `CCCCCCCCCCCCOC(=O)OCSP1(=O)OC[C@H]2O[C@@H](n3cnc4c(N)ncnc43)[C@H](F)[C@@H]2OCP(=O)(O)OC[C@H]2O[C@@H](n3cnc4c(=O)[nH]cnc43)[C@H](O1)[C@@H]2F` (stereo partly drawn) [Compound 58b, {[(1S,6R,8R,9R,10R,16R,18R,19R)-8-(6-amino-9H-purin-9-yl)-9,19-difluoro-13-hydroxy-3,13-dioxo-18-(6-oxo-6,9-dihydro-1H-purin-9-yl)-2,4,7,11,14,17-hexaoxa-3λ^5,13λ^5-diphosphatricyclo[14.2.1.0^6,10]nonadecan-3-yl]sulfanyl}methyl dodecyl carbonate] are 1200 nM, 1900 nM and 1300 nM.
